From patent US8575201B2 (Boehringer Ingelheim International GmbH, priority 2010, dated 2013)

Assays:
[1] = biological target: recombinant human FLAP protein (Homo sapiens (Human), UniProt P20292); test: FLAP binding assay (Scintillation Proximity Assay, displacement of [125I]L-691,831); conditions: read-out: FLAP SPA IC50
Method: Assessment of Biological Properties 1. Binding Assay: Compounds are assessed for the ability to bind to FLAP in a binding assay that measures compound-specific displacement of an iodinated (^125I) FLAP inhibitor via a Scintillation Proximity Assay format (adapted from S. Charleson et al., Mol. Pharmacol., 1992, 41, 873-879). […] The cells are lysed with a Dounce homogenizer and the material is centrifuged at 10,000×g for 10 minutes. The supernatant is then collected and centrifuged at 100,000×g for 60 minutes. To prepare membrane protein for an assay, an aliquot of the 100,000×g pellet is resuspended in 1 ml of buffer A, Dounce homogenized, and finally subjected to polytron mixing (30 seconds). […] Mol. Pharmacol., 41, 873-879, 1992) and finally 50 μl of the bead/protein mixture. (final concentrations: beads, 200 μg/well; protein, 5 μg/well; […] The plates are shaken for 2 h before reading on a Microbeta plate reader.

[2] = test system: synthesis of LTB4 in human whole blood; test: Human whole blood LTB4 production inhibition assay; assay type: cell-based; conditions: calcimycin stimulated, read-out: hWB LTB4 IC50
Method: Compounds are additionally tested in a human whole blood assay to determine their ability to inhibit the synthesis of LTB4 in a cellular system. Compounds are combined with heparinized human whole blood and incubated for 15 minutes at 37° C. Calcimycin (20 μM final, prepared in phosphate-buffered saline, pH 7.4) is then added and the mixture is incubated for another 30 minutes at 37° C. The samples are centrifuged for 5 min at low speed (1500×g) and the plasma layer is removed. Plasma LTB4 concentrations are then measured using an antibody-based homogenous time-resolved fluorescence method (CisBio, Bedford, Mass.).

recombinant human FLAP protein, sequence (P20292 whole entry): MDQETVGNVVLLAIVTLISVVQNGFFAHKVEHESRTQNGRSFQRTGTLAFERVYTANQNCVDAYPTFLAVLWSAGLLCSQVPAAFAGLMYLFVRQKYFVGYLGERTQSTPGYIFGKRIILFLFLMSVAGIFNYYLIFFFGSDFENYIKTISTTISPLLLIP

Row | IC50 [1] [nM] | IC50 [2] [nM] | Compound
1 | 27 | 400 | 5-(6-{1-[5-(3-methyl- 1H-pyrazol-4-yl)-1,2,4- oxadiazol-3- yl]cyclobutyl}pyridin-3- yl)pyrimidin-2-amine [Example 135]
2 | 3.8 | 280 | CC(C)(C)OC(=O)N1CCN(c2ccc(-c3nc(C4(c5ccc(-c6cnc(N)nc6)nc5)CCC4)no3)cn2)CC1 [Example 1, tert-butyl 4-[5-(3-{1-[6-(2-aminopyrimidin-5-yl)pyridin-3-yl]cyclobutyl}-1,2,4-oxadiazol-5-yl)pyridin-2-yl]piperazine-1-carboxylate]
3 | 5 | 740 | NC(=O)CNc1ccc(-c2nc(C3(c4ccc(-c5cnc(N)nc5)nc4)CCC3)no2)cn1 [Example 2, N-2-[5-(3-{1-[6-(2-aminopyrimidin-5-yl)pyridin-3-yl]cyclobutyl}-1,2,4-oxadiazol-5-yl)pyridin-2-yl]glycinamide]
4 | 2.7 | 150 | Nc1ncc(-c2ccc(C3(c4noc(-c5ccc(N6CCNCC6)nc5)n4)CCC3)cn2)cn1 [Example 3, 5-[5-(1-{5-[6-(piperazin-1-yl)pyridin-3-yl]-1,2,4-oxadiazol-3-yl}cyclobutyl)pyridin-2-yl]pyrimidin-2-amine]
5 | 17 | 430 | Nc1ncc(-c2ccc(C3(c4noc(-c5cc[nH]n5)n4)CCC3)cn2)cn1 [Example 4, 5-(5-{1-[5-(1H-pyrazol-3-yl)-1,2,4-oxadiazol-3-yl]cyclobutyl}pyridin-2-yl)pyrimidin-2-amine]
6 | 8.8 | 1100 | Cc1cccc(-c2nc(C3(c4ccc(-c5cnc(N)nc5)nc4)CCC3)no2)c1 [Example 5, 5-(5-{1-[5-(3-methylphenyl)-1,2,4-oxadiazol-3-yl]cyclobutyl}pyridin-2-yl)pyrimidin-2-amine]
7 | 5.8 | 830 | Cc1ccc(-c2nc(C3(c4ccc(-c5cnc(N)nc5)nc4)CCC3)no2)cc1 [Example 6, 5-(5-{1-[5-(4-methylphenyl)-1,2,4-oxadiazol-3-yl]cyclobutyl}pyridin-2-yl)pyrimidin-2-amine]
8 | 11 | 690 | CS(=O)(=O)c1ccc(-c2nc(C3(c4ccc(-c5cnc(N)nc5)nc4)CCC3)no2)cc1 [Example 7, 5-[5-(1-{5-[4-(methylsulfonyl)phenyl]-1,2,4-oxadiazol-3-yl}cyclobutyl)pyridin-2-yl]pyrimidin-2-amine]
9 | 2 | 110 | CCNc1ccc(-c2nc(C3(c4ccc(-c5cnc(N)nc5)nc4)CCC3)no2)cn1 [Example 8, 5-[5-(1-{5-[6-(ethylamino)pyridin-3-yl]-1,2,4-oxadiazol-3-yl}cyclobutyl)pyridin-2-yl]pyrimidin-2-amine]
10 | 2.9 | 320 | Nc1ncc(-c2ccc(C3(c4noc(-c5ccc(NC6CC6)nc5)n4)CCC3)cn2)cn1 [Example 9, 5-[5-(1-{5-[6-(cyclopropylamino)pyridin-3-yl]-1,2,4-oxadiazol-3-yl}cyclobutyl)pyridin-2-yl]pyrimidin-2-amine]
11 | 30 | 650 | Nc1ncc(-c2ccc(C3(c4noc(-c5cc(N)[nH]n5)n4)CCC3)cn2)cn1 [Example 10, 5-(5-{1-[5-(5-amino-1H-pyrazol-3-yl)-1,2,4-oxadiazol-3-yl]cyclobutyl}pyridin-2-yl)pyrimidin-2-amine]
12 | 78 | 2200 | CS(=O)(=O)c1cccc(-c2nc(C3(c4ccc(-c5cnc(N)nc5)nc4)CCC3)no2)c1 [Example 11, 5-[5-(1-{5-[3-(methylsulfonyl)phenyl]-1,2,4-oxadiazol-3-yl}cyclobutyl)pyridin-2-yl]pyrimidin-2-amine]
13 | 2.1 | 140 | CC(C)(O)CNc1ccc(-c2nc(C3(c4ccc(-c5cnc(N)nc5)nc4)CCC3)no2)cn1 [Example 12, 1-{[5-(3-{1-[6-(2-aminopyrimidin-5-yl)pyridin-3-yl]cyclobutyl}-1,2,4-oxadiazol-5-yl)pyridin-2-yl]amino}-2-methylpropan-2-ol]
14 | 3.9 | 170 | CCOC(=O)CNc1ccc(-c2nc(C3(c4ccc(-c5cnc(N)nc5)nc4)CCC3)no2)cn1 [Example 13, ethyl N-[5-(3-{1-[6-(2-aminopyrimidin-5-yl)pyridin-3-yl]cyclobutyl}-1,2,4-oxadiazol-5-yl)pyridin-2-yl]glycinate]
15 | 140 | > 5000 | Nc1ncc(-c2ccc(C3(c4noc(-c5c[nH]nn5)n4)CCC3)cn2)cn1 [Example 14, 5-(5-{1-[5-(1H-1,2,3-triazol-4-yl)-1,2,4-oxadiazol-3-yl]cyclobutyl}pyridin-2-yl)pyrimidin-2-amine]
16 | 280 | 2600 | CN(C)c1nc(C2(c3ccc(-c4cnc(N)nc4)nc3)CCC2)no1 [Example 15, 5-(5-{1-[5-(dimethylamino)-1,2,4-oxadiazol-3-yl]cyclobutyl}pyridin-2-yl)pyrimidin-2-amine]
17 | 11 | 2200 | Nc1ncc(-c2ccc(C3(c4noc(-c5ccc(NCC(=O)O)nc5)n4)CCC3)cn2)cn1 [Example 16, N-[5-(3-{1-[6-(2-aminopyrimidin-5-yl)pyridin-3-yl]cyclobutyl}-1,2,4-oxadiazol-5-yl)pyridin-2-yl]glycine]
18 | – | 210 | COCCn1cc(-c2nc(C3(c4ccc(-c5cnc(N)nc5)nc4)CCC3)no2)cn1 [Example 28, 5-[5-(1-{5-[1-(2-methoxyethyl)-1H-pyrazol-4-yl]-1,2,4-oxadiazol-3-yl}cyclobutyl)pyridin-2-yl]pyrimidin-2-amine]
19 | – | 86 | COC(=O)[C@@H]1CN(c2ccc(-c3nc(C4(c5ccc(-c6cnc(N)nc6)nc5)CCC4)no3)cn2)CCN1 [Example 39, methyl (2S)-[5-(3-{1-[6-(2-aminopyrimidin-5-yl)pyridin-3-yl]cyclobutyl}-1,2,4-oxadiazol-5-yl)pyridin-2-yl]piperazine-2-carboxylate]
20 | – | 24 | COCCNc1cnc(-c2nc(C3(c4ccc(-c5cnc(N)nc5)nc4)CCC3)no2)cn1 [Example 56, 5-{5-[1-(5-{5-[(2-methoxyethyl)amino]pyrazin-2-yl}-1,2,4-oxadiazol-3-yl)cyclobutyl]pyridin-2-yl}pyrimidin-2-amine]
21 | – | 34 | CCNc1cnc(-c2nc(C3(c4ccc(-c5cnc(N)nc5)nc4)CCC3)no2)cn1 [Example 57, 5-[5-(1-{5-[5-(ethylamino)pyrazin-2-yl]-1,2,4-oxadiazol-3-yl}cyclobutyl)pyridin-2-yl]pyrimidin-2-amine]
22 | – | 41 | CN1CCN(c2cnc(-c3nc(C4(c5ccc(-c6cnc(N)nc6)nc5)CCC4)no3)cn2)CC1 [Example 61, 5-[5-(1-{5-[5-(4-methylpiperazin-1-yl)pyrazin-2-yl]-1,2,4-oxadiazol-3-yl}cyclobutyl)pyridin-2-yl]pyrimidin-2-amine]
23 | – | 68 | Nc1ncc(-c2ccc(C3(c4noc(-c5ccc6[nH]ncc6c5)n4)CCC3)cn2)cn1 [Example 79, 5-(5-{1-[5-(1H-indazol-5-yl)-1,2,4-oxadiazol-3-yl]cyclobutyl}pyridin-2-yl)pyrimidin-2-amine]
24 | – | 190 | CC(C)(C)NC(=O)Cn1cc(-c2nc(C3(c4ccc(-c5cnc(N)nc5)nc4)CCC3)no2)cn1 [Example 144, 2-[4-(3-{1-[6-(2-aminopyrimidin-5-yl)pyridin-3-yl]cyclobutyl}-1,2,4-oxadiazol-5-yl)-1H-pyrazol-1-yl]-N-tert-butylacetamide]
25 | – | 550 | CCNC(=O)Cn1cc(-c2nc(C3(c4ccc(-c5cnc(N)nc5)nc4)CCC3)no2)cn1 [Example 158, 2-[4-(3-{1-[6-(2-amino-pyrimidin-5-yl)-pyridin-3-yl]-cyclobutyl}-[1,2,4]oxadiazol-5-yl)-pyrazol-1-yl]-N-ethyl-acetamide]
26 | – | 21 | Cc1nc(N)cnc1-c1ccc(C2(c3noc(-c4cnn(C5COC5)c4)n3)CCC2)cn1 [Example 169, 6-Methyl-5-(5-{1-[5-(1-oxetan-3-yl-1H-pyrazol-4-yl)-[1,2,4]oxadiazol-3-yl]-cyclobutyl}-pyridin-2-yl)-pyrazin-2-ylamine]
27 | – | 51 | N#CCn1cc(-c2nc(C3(c4ccc(-c5cnc(N)cn5)nc4)CCC3)no2)cn1 [Example 170, [4-(3-{1-[6-(5-Amino-pyrazin-2-yl)-pyridin-3-yl]-cyclobutyl}-[1,2,4]oxadiazol-5-yl)-pyrazol-1-yl]-acetonitrile]
28 | – | 51 | Cc1nc(N)cnc1-c1ccc(C2(c3noc(-c4cnn(CC(C)(C)O)c4)n3)CCC2)cn1 [Example 172, 1-[4-(3-{1-[6-(5-Amino-3-methyl-pyrazin-2-yl)-pyridin-3-yl]-cyclobutyl}-[1,2,4]oxadiazol-5-yl)-pyrazol-1-yl]-2-methyl-propan-2-ol]
29 | – | 18 | CNc1cnc(-c2ccc(C3(c4noc(-c5cnn(CC#N)c5)n4)CCC3)cn2)cn1 [Example 173, [4-(3-{1-[6-(5-Methylamino-pyrazin-2-yl)-pyridin-3-yl]-cyclobutyl}-[1,2,4]oxadiazol-5-yl)-pyrazol-1-yl]-acetonitrile]
